Results published in patent publication US8592581B2, “Trisubstituted purine derivatives” (Cyclacel Limited, priority 2007, dated 2013).

Assays:
CDK2/cyclin E = CDK2/cyclin E (Homo sapiens (Human), UniProt P24941); assay: In-vitro recombinant kinase assay CDK2/cyclin E; type: biochemical; conditions: Table 2; average of duplicate points; read-out: CDK2/Cyclin E Average IC50
Procedure: (§1) To evaluate the in-vitro kinase potency of the compounds, they were screened against CDK 2 and CDK9. Kinase assays were performed in 96-well plates using recombinant CDK/cyclins generated at Cyclacel. Ltd Dundee, UK. CDK2 and CDK9 assays were performed in a total volume of 25 μl in assay buffer (25 mM b-glycerophosphate, 20 mM MOPS, 5 mM EGTA, 1 mM DTT and 1 mM NaVO3, pH 7.4), into which were added 2-4 μg of active enzyme with appropriate substrates (purified histone H1 for CDK2/cyclin E, and CDK2/cyclin A, biotinyl-Ahx-(YSPTSPS)4 for CDK9/cyclin T1). […] CDK2 reactions were stopped by addition of 25 μl of 75 mM phosphoric acid, followed by filtration through P81 filterplates (Whatman Polyfiltronics, Kent, UK). For CDK9, the reaction was stopped by addition of 25 μl of 75 mM phosphoric acid, then 5 μl of 10 mg/ml avidin was added to each well and further incubated for 2 min followed by filtration as per CDK2 assay. After washing 3 times with 75 mM orthophosphoric acid, plates were dried, scintillant added and incorporated radioactivity measured in a scintillation counter (TopCount, Packard Instruments, Pangbourne, Berks, UK). Compounds for kinase assay were made up as 10 mM stocks in DMSO and diluted into 10% DMSO in assay buffer.
as §1

CYP3A4 = CYP3A4 (Homo sapiens (Human), UniProt P08684); assay: CYP3A4 inhibition, human liver microsomes, midazolam; type: in vitro ADME
Procedure: Six test compound concentrations (0.05, 0.25, 0.5, 2.5, 5, 25 μM in DMSO; final DMSO concentration 0.26%) were incubated with human liver microsomes (0.25 mg/mL) and NADPH (1 mM) in the presence of the probe substrate midazolam (2.5 μM) for 5 min at 37° C. The selective CYP3A4 inhibitor, ketoconazole, was screened alongside the test compounds as a positive control.
For the CYP1A incubations, the reactions were terminated by the addition of methanol, and the formation of the metabolite, resorufin, was monitored by fluorescence (excitation wavelength=535 nm, emission wavelength=595 nm). For the CYP2C9, CYP2C19, CYP2D6, and CYP3A4 incubations, the reactions were terminated by the addition of methanol containing internal standard. The samples were then centrifuged, and the supernatants were combined, for the simultaneous analysis of 4-hydroxytolbutamide, 4-hydroxymephenyloin, dextrorphan, and 1-hydroxymidazolam plus internal standard by LC-MS/MS using generic LC-MS/MS conditions. Formic acid in deionised water (final concentration=0.1%) was added to the final sample prior to analysis.

CYP2C9 = CYP2C9 (Homo sapiens (Human), UniProt P11712); assay: Cytochrome P450 substrate identification (Bactosomes) CYP2C9; type: in vitro ADME; conditions: pH 7.4, 5 μM test compound, up to 45 min, read-out: half life in the presence of CYP2C9
Procedure: (§2) cDNA expressed human CYP450 enzyme preparations co-expressed with human NADPH cytochrome P450 reductase (Bactosomes™) were supplied by Cypex Ltd. Bactosomes™ (final P450 concentration CYP1A2 100 pmol/mL, CYP2C8 50 pmol/mL, CYP2C9 25 pmol/mL, CYP2C19 100 pmol/mL, CYP2D6 50 pmol/mL and CYP3A4 25 pmol/mL), 0.1M phosphate buffer pH7.4 and test compound (final substrate concentration=5 μM; final DMSO concentration=0.25%) were pre-incubated at 37° C. prior to the addition of NADPH (final concentration=1 mM) to initiate the reaction. Incubations were also performed using control bactosomes (no P450 enzymes present) to reveal any non-enzymatic degradation. The final incubation volume was 25 μL. Compounds known to be metabolised specifically by each CYP450 isoform were used as control compounds.
(§3) Each compound was incubated singly for 0, 5, 15, 30 and 45 min with each CYP isoform. The reactions were stopped by the addition of 50 μL methanol containing internal standard at the appropriate time points. The incubation plates were centrifuged at 2500 rpm for 20 min at 4° C. to precipitate the protein. Following protein precipitation, the sample supernatants were combined in cassettes of up to four compounds and analysed using generic LC-MS/MS conditions.
(§4) The In peak area ratio (which has been corrected for any loss in the incubations with the control bactosomes) was plotted against time and the gradient of the line determined.
(§5) The elimination rate constant (k)=(−gradient)

CYP2D6 = CYP2D6 (Homo sapiens (Human), UniProt P10635); assay: Cytochrome P450 substrate identification (Bactosomes) CYP2D6; type: in vitro ADME; conditions: pH 7.4, 5 μM test compound, up to 45 min, read-out: half life in the presence of CYP2D6
Procedure: as §2, §3, §4, §5

Colo205 = assay: Alamar blue cytotoxicity assay Colo205; type: cell-based; conditions: Homo sapiens, COLO 205; 72 hours; read-out: cellular cytotoxicity IC50 Colo205
Procedure: (§6) In order to determine the cellular potency of the compounds, the cytotoxicity of each compound was determined against a range of cell lines. Standard cytotoxicity methods were performed as follows: cells were seeded in 96-well plates appropriately for their doubling time (2-5000 cells per well) in RPMI or DMEM media containing 10% FCS and incubated overnight at 37° C., 5% CO2. The media was removed and 100 μl fresh media containing increasing concentrations of appropriate compound was added and the cells incubated for 72 hours at 37° C., 5% CO2. A 10% stock of alamar blue (Roche, Lewes, United Kingdom) was prepared in medium and 100 μl added to the cells which were incubated for 2 hours. Absorbance was measured on the Wallac Victor 2 1420 multi-label counter at 544-595 nm.

A549 = assay: Alamar blue cytotoxicity assay A549; type: cell-based; conditions: Homo sapiens, 72 hours, read-out: cellular cytotoxicity IC50 A549
Procedure: as §6

MCF7 = assay: Alamar blue cytotoxicity assay MCF7; type: cell-based; conditions: Homo sapiens, 72 hours, read-out: cellular cytotoxicity IC50 MCF7
Procedure: as §6

NCI-H929 = assay: Alamar blue cytotoxicity assay NCI-H929; type: cell-based; conditions: Homo sapiens, 72 hours, read-out: cellular cytotoxicity IC50 NCI-H929
Procedure: as §6

H358 = assay: Alamar blue cytotoxicity assay H358; type: cell-based; conditions: Homo sapiens, NCI-H358; 72 hours; read-out: cellular cytotoxicity IC50 H358
Procedure: as §6

various cell lines = assay: Alamar blue cytotoxicity assay, average over the cell lines of Table 8; type: cell-based
Procedure: as §6

Chain of CYP3A4 (P08684 whole entry): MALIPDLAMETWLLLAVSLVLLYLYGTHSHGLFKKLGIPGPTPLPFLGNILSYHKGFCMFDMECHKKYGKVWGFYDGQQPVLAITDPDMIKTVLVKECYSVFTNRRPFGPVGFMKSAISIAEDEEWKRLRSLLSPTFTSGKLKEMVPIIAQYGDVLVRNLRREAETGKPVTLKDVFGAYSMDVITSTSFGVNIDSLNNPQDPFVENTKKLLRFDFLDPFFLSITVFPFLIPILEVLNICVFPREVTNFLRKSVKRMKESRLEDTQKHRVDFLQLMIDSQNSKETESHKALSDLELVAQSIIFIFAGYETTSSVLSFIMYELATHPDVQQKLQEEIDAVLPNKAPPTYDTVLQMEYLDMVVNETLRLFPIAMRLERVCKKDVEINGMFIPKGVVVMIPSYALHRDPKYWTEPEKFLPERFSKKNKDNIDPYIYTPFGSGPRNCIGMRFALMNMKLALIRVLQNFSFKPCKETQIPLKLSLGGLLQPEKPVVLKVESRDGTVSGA
Chain of CYP2C9 (P11712 whole entry): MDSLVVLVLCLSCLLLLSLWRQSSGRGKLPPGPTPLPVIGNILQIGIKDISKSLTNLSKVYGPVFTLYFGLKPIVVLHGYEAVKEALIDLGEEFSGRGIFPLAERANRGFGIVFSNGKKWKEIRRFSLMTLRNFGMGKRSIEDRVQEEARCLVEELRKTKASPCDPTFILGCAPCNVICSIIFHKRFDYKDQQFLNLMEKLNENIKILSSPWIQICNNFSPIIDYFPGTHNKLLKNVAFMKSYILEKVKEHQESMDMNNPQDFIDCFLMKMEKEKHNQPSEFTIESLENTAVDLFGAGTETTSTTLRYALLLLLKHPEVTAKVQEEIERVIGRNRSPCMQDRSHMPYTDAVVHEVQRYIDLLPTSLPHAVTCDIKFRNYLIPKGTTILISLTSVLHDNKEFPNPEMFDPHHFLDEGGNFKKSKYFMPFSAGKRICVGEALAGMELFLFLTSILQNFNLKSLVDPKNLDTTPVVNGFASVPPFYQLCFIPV
Chain of CYP2D6 (P10635 whole entry): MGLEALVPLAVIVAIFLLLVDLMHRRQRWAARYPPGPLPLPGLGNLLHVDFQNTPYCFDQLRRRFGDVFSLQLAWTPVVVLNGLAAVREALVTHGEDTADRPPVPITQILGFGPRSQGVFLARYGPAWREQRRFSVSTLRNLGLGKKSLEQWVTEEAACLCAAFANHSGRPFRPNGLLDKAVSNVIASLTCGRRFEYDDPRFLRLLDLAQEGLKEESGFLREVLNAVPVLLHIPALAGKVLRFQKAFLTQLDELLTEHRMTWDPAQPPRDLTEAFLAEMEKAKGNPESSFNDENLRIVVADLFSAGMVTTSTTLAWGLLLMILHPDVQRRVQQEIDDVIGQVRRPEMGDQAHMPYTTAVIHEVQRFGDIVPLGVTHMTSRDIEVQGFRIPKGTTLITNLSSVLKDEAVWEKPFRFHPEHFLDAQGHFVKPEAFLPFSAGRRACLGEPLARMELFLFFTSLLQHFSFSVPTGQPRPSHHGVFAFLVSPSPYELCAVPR

With `CC[C@H](Nc1nc(NCc2cnc(C)cc2C)c2ncn(C(C)C)c2n1)[C@@H](C)O` [Compound [1]] the IC50 (CDK2/cyclin E) was 0.02 µM, the “CYP3A4-inhibiting concentration as multiple of cellular IC50” value (CYP3A4) was roughly 60 times and the “concentration up to which CYP3A4 is not inhibited” value (CYP3A4) was “greater than 20 μM”. For the same molecule, the “inhibition of CYP3A4 (in words)” value (CYP3A4) was “does not significantly inhibit CYP3A4”, the IC50 (CYP3A4; human liver microsomes) was 22.5 µM and the half-life at 5 μM (CYP2C9) was greater than 45 min. For the same molecule, the half-life at 5 μM (CYP2D6) was greater than 45 min, the IC50 (Colo205) was 0.31 µM and the IC50 (A549) was 0.16 µM. For the same molecule, the IC50 (MCF7) was 0.26 µM, the IC50 (NCI-H929) was 0.35 µM and the IC50 (H358) was 0.18 µM. For the same molecule, the “cytotoxic potency compared with prior art compounds (in words)” value (various cell lines; 21 cell lines, versus [A1], [A2] or [A3]) was “significantly more potent” and the IC50 (various cell lines; average over the cell lines of Table 8, read-out: cellular cytotoxicity IC50 Ave) was 0.35 µM.
